Experimental data reported in US12502362B2, “Inhibitors of nucleotidyltransferase superfamily enzymes as antibiotics” (priority 2017, dated 2025).
In brackets after ≈: the same amount, converted by molar mass. Like-named read-outs stand apart in the source and are kept apart here.

How the values were obtained:
[1] = tested on: S. aureus ATCC strains and MRSA; format: cell-based, Staphylococcus aureus
[2] = tested on: Staphylococcus epidermidis; format: cell-based; for FOX screen: key: POS: cefoxitin-screen positive (resistant to cefoxitin)
Procedure: (§1) It was also tested whether compounds #63 and #285 can inhibit other coagulase-negative Staphylococcus (CNS) including S. epidermidis, S. hominis, etc. […].

[3] = tested on: Staphylococcus hominis; format: cell-based; for FOX screen: key: POS: cefoxitin-screen positive (resistant to cefoxitin)
Procedure: as §1

[4] = tested on: S. aureus (ATCC 29213); experiment: MIC80 on S. aureus; format: cell-based, Staphylococcus aureus; settings: S. aureus ATCC 29213 (MSSA); ≥80% growth inhibition
Procedure: (§2) To further characterize the compounds, the minimal inhibitory concentration (MIC80) were determined for selected compounds. MIC80 is defined as the compound concentration at which ≥80% bacterial growth is inhibited compare to untreated controls. Meanwhile, for the selected compounds, cytotoxicity assays (CC50) were performed on a HepG2-derived hepatoblastoma cell line (HEPDES19). […] For CC50 evaluation, soluble tetrazolium dye (MTS) was used to measure mitochondrial toxicity in a human hepatoblastoma cell line (18). The bacteria (E. coli, S. saprophyticus and A. baumannii) used in MIC80 measurements were the same as that in the primary screening, but for Staphylococcus, S. aureus is used primarily because it is a common pathogen in Staphylococcaeae family, while S. saprophyticus is part of the normal human flora.

[5] = tested on: E. coli (ATCC 35218); experiment: microbe, parasite or virus in culture; format: cell-based; settings: E. coli ATCC 35218
Procedure: as §2

[6] = tested on: Coagulase negative Staphylococcus; experiment: Antibiotic susceptibility of coagulase negative Staphylococcus strains; format: cell-based
[7] = Se1 (Staphylococcus epidermidis)
[8] = Se2 (Staphylococcus epidermidis)
[9] = Se3 (Staphylococcus epidermidis)
[10] = Se4 (Staphylococcus epidermidis)
[11] = Se5 (Staphylococcus epidermidis)
[12] = CNS1 (Coagulase negative Staphylococcus)
[13] = CNS2 (Coagulase negative Staphylococcus)

## CCC[C@@H]1C[C@@H](C(=O)N[C@@H]([C@H]2O[C@H](SC)[C@H](O)[C@@H](O)[C@H]2O)[C@H](C)Cl)N(C)C1 [CLI, clindamycin]
[1]; S. aureus ATCC 25923
  Antibiotic susceptibility: S
[1]; S. aureus ATCC 29213
  Antibiotic susceptibility: S
[1]; S. aureus ATCC BAA 976
  Antibiotic susceptibility: S
[1]; S. aureus ATCC BAA 977
  Antibiotic susceptibility: R
[1]; S. aureus ATCC BAA 1026
  Antibiotic susceptibility: R
[1]; Sa1 (MRSA)
  Antibiotic susceptibility: R
[1]; Sa2 (MRSA)
  Antibiotic susceptibility: S
[1]; Sa3 (MRSA)
  Antibiotic susceptibility: R
[1]; Sa5 (MRSA)
  Antibiotic susceptibility: R
[1]; Sa6 (MRSA)
  Antibiotic susceptibility: R
[1]; Sa7 (MRSA)
  Antibiotic susceptibility: S
[1]; Sa8 (MRSA)
  Antibiotic susceptibility: S
[1]; Sa9 (MRSA)
  Antibiotic susceptibility: R
[1]; Sa10 (MRSA)
  Antibiotic susceptibility: R
[1]; Sa11 (MRSA)
  Antibiotic susceptibility: R
[1]; Sa12 (MRSA)
  Antibiotic susceptibility: R
[1]; Sa14 (MRSA)
  Antibiotic susceptibility: R
[1]; Sa15 (MRSA)
  Antibiotic susceptibility: R
[1]; Sa16 (MRSA)
  Antibiotic susceptibility: R
[1]; Sa17 (MRSA)
  Antibiotic susceptibility: S
[1]; Sa18 (MRSA)
  Antibiotic susceptibility: S
[1]; Sa19 (MRSA)
  Antibiotic susceptibility: R
[1]; Sa20 (MRSA)
  Antibiotic susceptibility: S
[1]; Sa21 (MRSA)
  Antibiotic susceptibility: S
[1]; Sa22 (MRSA)
  Antibiotic susceptibility: S
[1]; Sa23 (MRSA)
  Antibiotic susceptibility: S
[2]; [7]
  Antibiotic susceptibility: R
[2]; [8]
  Antibiotic susceptibility: R
[2]; [9]
  Antibiotic susceptibility: R
[2]; [10]
  Antibiotic susceptibility: R
[2]; [11]
  Antibiotic susceptibility: R
[3]; Sh1 (Staphylococcus hominis)
  Antibiotic susceptibility: S
[3]; Sh2 (Staphylococcus hominis)
  Antibiotic susceptibility: S
[3]; Sh3 (Staphylococcus hominis)
  Antibiotic susceptibility: R

## Cc1cc(O)c(=O)c(O)cc1-c1cccc2ccccc12 [Compound 146]
[4]
  MIC80 S. aureus: 19.8 µM (≈ 5.51 µg/mL)

## O=C(O)c1ccccc(=O)c1O [Compound 338]
[4]
  MIC80 S. aureus: 19.8 µM (≈ 3.29 µg/mL)

## COc1ccc(Cl)cc1C(=O)Sc1cccccc1=O [Compound 681]
[4]
  MIC80 S. aureus: 19.8 µM (≈ 6.07 µg/mL)
[5]
  MIC80 E. coli: 19.8 µM (≈ 6.07 µg/mL)

## O=c1cccccc1Sc1cccccc1=O [Compound 684]
[4]
  MIC80 S. aureus: 44.4 µM (≈ 10.8 µg/mL)

## O=c1cccccc1SSc1cccccc1=O [Compound 685]
[4]
  MIC80 S. aureus: >100 µM
[5]
  MIC80 E. coli: 19.8 µM (≈ 5.43 µg/mL)

## CCCCCCCCCC(=O)N[C@@H](Cc1c[nH]c2ccccc12)C(=O)N[C@H](CC(N)=O)C(=O)N[C@@H](CC(=O)O)C(=O)N[C@@H]1C(=O)NCC(=O)N[C@@H](CCCN)C(=O)N[C@@H](CC(=O)O)C(=O)N[C@H](C)C(=O)N[C@@H](CC(=O)O)C(=O)NCC(=O)N[C@H](CO)C(=O)N[C@@H]([C@H](C)CC(=O)O)C(=O)N[C@@H](CC(=O)c2ccccc2N)C(=O)O[C@@H]1C [DAP, daptomycin]
[1]; S. aureus ATCC 25923
  Antibiotic susceptibility: S
[1]; S. aureus ATCC 29213
  Antibiotic susceptibility: S
[1]; S. aureus ATCC BAA 976
  Antibiotic susceptibility: S
[1]; S. aureus ATCC BAA 977
  Antibiotic susceptibility: S
[1]; S. aureus ATCC BAA 1026
  Antibiotic susceptibility: S
[1]; Sa1 (MRSA)
  Antibiotic susceptibility: S
[1]; Sa2 (MRSA)
  Antibiotic susceptibility: S
[1]; Sa3 (MRSA)
  Antibiotic susceptibility: S
[1]; Sa6 (MRSA)
  Antibiotic susceptibility: S
[1]; Sa7 (MRSA)
  Antibiotic susceptibility: S
[1]; Sa9 (MRSA)
  Antibiotic susceptibility: S
[1]; Sa11 (MRSA)
  Antibiotic susceptibility: S
[1]; Sa12 (MRSA)
  Antibiotic susceptibility: S
[1]; Sa15 (MRSA)
  Antibiotic susceptibility: S
[1]; Sa16 (MRSA)
  Antibiotic susceptibility: S
[1]; Sa17 (MRSA)
  Antibiotic susceptibility: S
[1]; Sa18 (MRSA)
  Antibiotic susceptibility: S
[1]; Sa19 (MRSA)
  Antibiotic susceptibility: S
[1]; Sa20 (MRSA)
  Antibiotic susceptibility: S
[1]; Sa21 (MRSA)
  Antibiotic susceptibility: S
[1]; Sa22 (MRSA)
  Antibiotic susceptibility: S
[1]; Sa23 (MRSA)
  Antibiotic susceptibility: S
[6]; [12]
  Antibiotic susceptibility: S
[6]; [13]
  Antibiotic susceptibility: S
[2]; [7]
  Antibiotic susceptibility: S
[2]; [8]
  Antibiotic susceptibility: S
[2]; [9]
  Antibiotic susceptibility: S
[2]; [10]
  Antibiotic susceptibility: S
[2]; [11]
  Antibiotic susceptibility: S
[3]; Sh1 (Staphylococcus hominis)
  Antibiotic susceptibility: S
[3]; Sh2 (Staphylococcus hominis)
  Antibiotic susceptibility: S
[3]; Sh3 (Staphylococcus hominis)
  Antibiotic susceptibility: S

## C[C@H]1c2cccc(O)c2C(=O)C2=C(O)[C@]3(O)C(=O)C(C(N)=O)=C(O)[C@@H](N(C)C)[C@@H]3[C@@H](O)[C@@H]21 [DOX, doxycycline]
[1]; S. aureus ATCC 25923
  Antibiotic susceptibility: S
[1]; S. aureus ATCC 29213
  Antibiotic susceptibility: S
[1]; S. aureus ATCC BAA 976
  Antibiotic susceptibility: S
[1]; S. aureus ATCC BAA 977
  Antibiotic susceptibility: S
[1]; S. aureus ATCC BAA 1026
  Antibiotic susceptibility: S
[1]; Sa1 (MRSA)
  Antibiotic susceptibility: S
[1]; Sa2 (MRSA)
  Antibiotic susceptibility: S
[1]; Sa3 (MRSA)
  Antibiotic susceptibility: S
[1]; Sa6 (MRSA)
  Antibiotic susceptibility: S
[1]; Sa7 (MRSA)
  Antibiotic susceptibility: S
[1]; Sa9 (MRSA)
  Antibiotic susceptibility: S
[1]; Sa11 (MRSA)
  Antibiotic susceptibility: S
[1]; Sa12 (MRSA)
  Antibiotic susceptibility: S
[1]; Sa14 (MRSA)
  Antibiotic susceptibility: S
[1]; Sa15 (MRSA)
  Antibiotic susceptibility: S
[1]; Sa16 (MRSA)
  Antibiotic susceptibility: S
[1]; Sa17 (MRSA)
  Antibiotic susceptibility: S
[1]; Sa18 (MRSA)
  Antibiotic susceptibility: S
[1]; Sa19 (MRSA)
  Antibiotic susceptibility: S
[1]; Sa20 (MRSA)
  Antibiotic susceptibility: S
[1]; Sa21 (MRSA)
  Antibiotic susceptibility: S
[1]; Sa22 (MRSA)
  Antibiotic susceptibility: S
[1]; Sa23 (MRSA)
  Antibiotic susceptibility: S
[6]; [12]
  Antibiotic susceptibility: S
[6]; [13]
  Antibiotic susceptibility: S
[2]; [7]
  Antibiotic susceptibility: S
[2]; [8]
  Antibiotic susceptibility: S
[2]; [9]
  Antibiotic susceptibility: S
[2]; [10]
  Antibiotic susceptibility: S
[2]; [11]
  Antibiotic susceptibility: S
[3]; Sh1 (Staphylococcus hominis)
  Antibiotic susceptibility: S
[3]; Sh2 (Staphylococcus hominis)
  Antibiotic susceptibility: R
[3]; Sh3 (Staphylococcus hominis)
  Antibiotic susceptibility: S

## CC[C@H]1OC(=O)[C@H](C)[C@@H](O[C@H]2C[C@@](C)(OC)[C@@H](O)[C@H](C)O2)[C@H](C)[C@@H](O[C@@H]2O[C@H](C)C[C@H](N(C)C)[C@H]2O)[C@](C)(O)C[C@@H](C)C(=O)[C@H](C)[C@@H](O)[C@]1(C)O [ERY, erythromycin]
[1]; S. aureus ATCC 25923
  Antibiotic susceptibility: S
[1]; S. aureus ATCC 29213
  Antibiotic susceptibility: S
[1]; S. aureus ATCC BAA 976
  Antibiotic susceptibility: R
[1]; S. aureus ATCC BAA 977
  Antibiotic susceptibility: R
[1]; S. aureus ATCC BAA 1026
  Antibiotic susceptibility: R
[1]; Sa1 (MRSA)
  Antibiotic susceptibility: R
[1]; Sa2 (MRSA)
  Antibiotic susceptibility: R
[1]; Sa3 (MRSA)
  Antibiotic susceptibility: R
[1]; Sa5 (MRSA)
  Antibiotic susceptibility: R
[1]; Sa6 (MRSA)
  Antibiotic susceptibility: R
[1]; Sa7 (MRSA)
  Antibiotic susceptibility: R
[1]; Sa8 (MRSA)
  Antibiotic susceptibility: R
[1]; Sa9 (MRSA)
  Antibiotic susceptibility: R
[1]; Sa10 (MRSA)
  Antibiotic susceptibility: R
[1]; Sa11 (MRSA)
  Antibiotic susceptibility: R
[1]; Sa12 (MRSA)
  Antibiotic susceptibility: R
[1]; Sa14 (MRSA)
  Antibiotic susceptibility: R
[1]; Sa15 (MRSA)
  Antibiotic susceptibility: R
[1]; Sa16 (MRSA)
  Antibiotic susceptibility: R
[1]; Sa17 (MRSA)
  Antibiotic susceptibility: R
[1]; Sa18 (MRSA)
  Antibiotic susceptibility: R
[1]; Sa19 (MRSA)
  Antibiotic susceptibility: R
[1]; Sa20 (MRSA)
  Antibiotic susceptibility: R
[1]; Sa21 (MRSA)
  Antibiotic susceptibility: R
[1]; Sa22 (MRSA)
  Antibiotic susceptibility: R
[1]; Sa23 (MRSA)
  Antibiotic susceptibility: R
[6]; [12]
  Antibiotic susceptibility: I
[6]; [13]
  Antibiotic susceptibility: S
[2]; [7]
  Antibiotic susceptibility: S
[2]; [8]
  Antibiotic susceptibility: R
[2]; [9]
  Antibiotic susceptibility: R
[2]; [10]
  Antibiotic susceptibility: R
[2]; [11]
  Antibiotic susceptibility: R
[3]; Sh1 (Staphylococcus hominis)
  Antibiotic susceptibility: R
[3]; Sh2 (Staphylococcus hominis)
  Antibiotic susceptibility: S
[3]; Sh3 (Staphylococcus hominis)
  Antibiotic susceptibility: R

## CO[C@@]1(NC(=O)Cc2cccs2)C(=O)N2C(C(=O)O)=C(COC(N)=O)CS[C@@H]21 [FOX, Cefoxitin]
[1]; S. aureus ATCC 25923
  FOX screen: Neg
[1]; S. aureus ATCC 29213
  FOX screen: Neg
[1]; S. aureus ATCC BAA 976
  FOX screen: POS
[1]; S. aureus ATCC BAA 977
  FOX screen: Neg
[1]; S. aureus ATCC BAA 1026
  FOX screen: POS
[1]; Sa1 (MRSA)
  FOX screen: POS
[1]; Sa2 (MRSA)
  FOX screen: POS
[1]; Sa3 (MRSA)
  FOX screen: POS
[1]; Sa6 (MRSA)
  FOX screen: POS
[1]; Sa7 (MRSA)
  FOX screen: POS
[1]; Sa9 (MRSA)
  FOX screen: POS
[1]; Sa11 (MRSA)
  FOX screen: POS
[1]; Sa12 (MRSA)
  FOX screen: POS
[1]; Sa14 (MRSA)
  FOX screen: POS
[1]; Sa15 (MRSA)
  FOX screen: POS
[1]; Sa16 (MRSA)
  FOX screen: POS
[1]; Sa17 (MRSA)
  FOX screen: POS
[1]; Sa18 (MRSA)
  FOX screen: POS
[1]; Sa19 (MRSA)
  FOX screen: POS
[1]; Sa20 (MRSA)
  FOX screen: POS
[1]; Sa21 (MRSA)
  FOX screen: POS
[1]; Sa22 (MRSA)
  FOX screen: POS
[1]; Sa23 (MRSA)
  FOX screen: POS
[6]; [12]
  FOX screen: POS
[6]; [13]
  FOX screen: POS
[2]; [7]
  FOX screen: POS
[2]; [8]
  FOX screen: POS
[2]; [9]
  FOX screen: POS
[2]; [10]
  FOX screen: POS
[2]; [11]
  FOX screen: POS
[3]; Sh1 (Staphylococcus hominis)
  FOX screen: POS
[3]; Sh2 (Staphylococcus hominis)
  FOX screen: POS
[3]; Sh3 (Staphylococcus hominis)
  FOX screen: POS
